# Experimental data reported in publication doi:10.1101/2022.06.29.498065v2 (biorxiv, 2022).
# Target: KFDV NS5 (Kyasanur Forest disease virus, UniProt D7RF80)
# Assay: biochemical
# Chain of KFDV NS5 (D7RF80 2518-3410 limits assumed): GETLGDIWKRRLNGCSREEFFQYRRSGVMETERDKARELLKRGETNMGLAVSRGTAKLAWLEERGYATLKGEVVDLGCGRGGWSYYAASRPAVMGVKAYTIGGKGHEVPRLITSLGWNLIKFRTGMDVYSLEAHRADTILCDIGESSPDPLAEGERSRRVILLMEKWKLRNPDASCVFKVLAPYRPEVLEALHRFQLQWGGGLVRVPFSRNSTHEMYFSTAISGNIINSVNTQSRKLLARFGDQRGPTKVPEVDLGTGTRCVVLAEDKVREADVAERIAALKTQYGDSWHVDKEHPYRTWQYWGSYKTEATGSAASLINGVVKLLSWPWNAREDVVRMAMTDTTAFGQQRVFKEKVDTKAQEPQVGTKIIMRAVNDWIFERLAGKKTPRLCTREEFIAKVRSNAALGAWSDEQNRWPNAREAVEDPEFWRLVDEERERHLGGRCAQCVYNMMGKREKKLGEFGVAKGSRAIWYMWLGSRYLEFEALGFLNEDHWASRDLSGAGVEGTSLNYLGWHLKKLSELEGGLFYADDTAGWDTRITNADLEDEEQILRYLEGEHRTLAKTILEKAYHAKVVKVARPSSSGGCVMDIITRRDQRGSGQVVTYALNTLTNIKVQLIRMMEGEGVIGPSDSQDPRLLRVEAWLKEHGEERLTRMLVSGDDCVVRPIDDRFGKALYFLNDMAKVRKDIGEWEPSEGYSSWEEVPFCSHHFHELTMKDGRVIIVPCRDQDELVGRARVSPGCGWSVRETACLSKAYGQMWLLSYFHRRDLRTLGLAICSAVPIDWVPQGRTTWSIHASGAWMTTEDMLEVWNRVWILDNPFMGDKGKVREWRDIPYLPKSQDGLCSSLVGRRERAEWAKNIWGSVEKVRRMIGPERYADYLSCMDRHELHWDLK
compound,measurement,value
"CC(C)OC(=O)[C@H](C)N[P@](=O)(OC[C@H]1O[C@@H](n2ccc(=O)[nH]c2=O)[C@](C)(F)[C@@H]1O)Oc1ccccc1 [Sofosbuvir, L-Alanine, N-[[P(S),2’R]-2’-deoxy-2’-fluoro-2’-methyl-P-phenyl-5’-uridylyl]-,1-methyl ethyl ester]",IC50,3.45 ± 0.012 µM
"C[C@@]1(F)[C@H](O)[C@@H](COP(=O)(O)OP(=O)(O)OP(=O)(O)O)O[C@H]1n1ccc(=O)[nH]c1=O [sofosbuvir triphosphate, β-D-2’-deoxy-2’-fluoro-2’-C-methyluridine 5’-triphosphate]",IC50,3.73 ± 0.033 µM
